In patent US5869479A, “Treatment of upper airway allergic responses” (Schering Corporation, priority 1997, dated 1999):

Assays:
nasal airway resistance = assay: Nasal airway resistance (NAR) in anesthetized cats after aerosolized Compound 48/80 challenge; format: in vivo
Excerpt: (§1) Adult cats are anesthetized with intraperitoneal injections of sodium pentobarbital. The right femoral artery and vein are cannulated for measurement of blood pressure with a pressure transducer, and for the administration of drugs. The animals are paralyzed with intravenous gallamine triethiodide and subsequently mechanically ventilated with room air, using an animal ventilator. After isolation of the cervical […], a cuffed endotracheal tube is advanced rostrally into the posterior nasopharynx and inflated to form an air-tight seal, allowing continuous measurement of pressure changes within the nasal cavity. The right nasal airway is occluded with dental impression compound, and humidified air is passed through the left nasal airway at about 1.7 liters per minute. By means of pressure transducers, nasal airway pressure and insufflation pressure can be derived and electronically recorded.
The known histamine releaser "Compound 48/80" (the condensation product of N-methyl-p-methoxyphenethylamine with formaldehyde, sold by Sigma Chemical Company, St. Louis, Mo., USA), as a 1.0 percent solution in 0.9 percent aqueous saline solution, is aerosolized into the air stream for 2 minutes to induce an increased NAR. This effect is used to study the decongestant effects of various test substances, administered to the animals intravenously 10 minutes prior to the introduction of Compound 48/80. These substances include 0.9 percent aqueous saline (normal saline "Vehicle"), phenylpropanolamine hydrochloride at 1.0 mg/Kg of the free drug, thioperamide maleate at 10 mg/Kg of the free drug and chlorpheniramine maleate at 0.8 mg/Kg of the free drug, all of the drug compounds being in solution in 0.9 percent aqueous saline. […]

[1] = Blood pressure change from baseline in the cat experiments; format: in vivo, cats; details: Example 4, phenylpropanolamine 1 mg/Kg
Excerpt: as §1
The known histamine releaser "Compound 48/80" (the condensation product of N-methyl-p-methoxyphenethylamine with formaldehyde, sold by Sigma Chemical Company, St. Louis, Mo., USA), as a 1.0 percent solution in 0.9 percent aqueous saline solution, is aerosolized into the air stream for 2 minutes to induce an increased NAR. This effect is used to study the decongestant effects of various test substances, administered to the animals intravenously 10 minutes prior to the introduction of Compound 48/80. These substances include 0.9 percent aqueous saline (normal saline "Vehicle"), phenylpropanolamine hydrochloride at 1.0 mg/Kg of the free drug, thioperamide maleate at 10 mg/Kg of the free drug and chlorpheniramine maleate at 0.8 mg/Kg of the free drug, all of the drug compounds being in solution in 0.9 percent aqueous saline.
Blood pressure data from the experiments of the preceding examples are examined, to determine the effects of certain congestion-preventing treatments.

histamine H3 receptor = molecular target: T1, histamine H3 receptor (Cavia porcellus, UniProt Q9JI35); assay: Guinea pig brain membrane assay, affinity for histamine H3 receptor binding sites (Korte et al.); details: Example 5
T1 construct: from tissue; host or cells: guinea pig brain membranes
Excerpt: A particularly useful screening assay measures binding to sites in guinea pig brain membranes. This test is described in detail by Korte et al., "Characterization and Tissue Distribution of H3 Histamine Receptors in Guinea Pigs by N^α -Methylhistamine," in Biochemical and Biophysical Research Communications, Vol. 168, pages 979-986 (1990), and quantifies the displacement of bound radiolabeled N^α -methylhistamine from tissues by candidate compounds. Results are expressed as "Ki " values, in nanoMolar (nM) units, which values can be considered as being dissociation constants for the H3 antagonist on the H3 receptor system, or an index of antagonist affinity for the receptor. The present inventors have evidence that decongestant activity in their invention for a given H3 antagonist concentration can be predicted to increase as the Ki value obtained from the assay for an antagonist decreases. In general, Ki values less than about 200 nM are considered necessary for an agent to be useful as an H3 antagonist in the invention.
The affinity of various histamine H3 receptor antagonists for binding sites is determined by a guinea pig brain membrane assay, according to the procedure of Korte et al., Biochemical and Biophysical Research Communications, Vol. 168, pages 979-986 (1990).

[2] = Example 1, i.v. 10 min before Compound 48/80, phenylpropanolamine 1.0 mg/Kg, thioperamide 10 mg/Kg, chlorpheniramine 0.8 mg/Kg (free drug), vehicle 9.1, baseline 2.6

T1 sequence (Q9JI35 whole entry): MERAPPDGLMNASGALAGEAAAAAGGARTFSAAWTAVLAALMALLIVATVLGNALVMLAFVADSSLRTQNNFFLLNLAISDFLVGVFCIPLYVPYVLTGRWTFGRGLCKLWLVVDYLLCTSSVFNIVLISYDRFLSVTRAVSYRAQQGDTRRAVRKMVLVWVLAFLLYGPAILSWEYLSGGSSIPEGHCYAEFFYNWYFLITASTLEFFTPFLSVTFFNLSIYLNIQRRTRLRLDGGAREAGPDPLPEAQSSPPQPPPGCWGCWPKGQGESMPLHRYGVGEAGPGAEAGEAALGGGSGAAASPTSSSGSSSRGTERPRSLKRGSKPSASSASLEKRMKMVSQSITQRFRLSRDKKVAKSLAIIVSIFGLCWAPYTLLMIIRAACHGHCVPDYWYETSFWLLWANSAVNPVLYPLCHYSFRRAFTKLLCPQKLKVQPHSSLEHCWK

Q: For `NC(=NCc1ccc(Cl)cc1)SCCCc1cnc[nH]1` [Clobenpropit, clobenpropit], which “Prevention of nasal congestion (in words)” value (nasal airway resistance; Example 3, clobenpropit alone or with chlorpheniramine 0.8 mg/Kg) is on record?
A: does not exhibit significant prevention of nasal congestion

Q: And the “NAR (nasal airway resistance)” value (nasal airway resistance; Example 3, i.v., clobenpropit 1.0 mg/Kg alone, vehicle 9.1)?
A: 5.5 centimeters of water/liters pe

Q: For `CCOC(=O)N1CCC(=C2c3ccc(Cl)cc3CCc3cccnc32)CC1` [Loratadine, loratadine], which “NAR (nasal airway resistance)” value (nasal airway resistance; Example 6, loratadine 3 mg/Kg, thioperamide 10 mg/Kg, vehicle 30% dimethylsulfoxide, 40% ethanol, 30% normal saline (vehicle 12.6)) is on record?
A: 10.2 centimeters of water/liters pe

Q: Which “NAR (nasal airway resistance)” value (nasal airway resistance; [2]) does the source give for `CN(C)CCC(c1ccc(Cl)cc1)c1ccccn1` (centres unmarked) [Chlorpheniramine, chlorpheniramine] here?
A: 6.0 centimeters of water/liters pe

Q: For `CC(N)C(O)c1ccccc1` (centres unmarked) [Phenylpropanolamine, phenylpropanolamine], which “Blood pressure, change from baseline” value ([1]; i.v., thioperamide 10 mg/Kg + CPA 0.8 mg/kg, vehicle -16) is on record?
A: +31 mm Hg

Q: And the “Statistical difference of blood pressure change from vehicle” value [1]?
A: statistically different from those for the vehicle

Q: What about the “Effect on blood pressure (in words)” value ([1]; thioperamide 10 mg/Kg + CPA 0.8 mg/kg) of the same molecule?
A: significantly increases blood pressure

Q: What about the “NAR (nasal airway resistance)” value (nasal airway resistance; [2]) of the same molecule?
A: 2.9 centimeters of water/liters pe

Q: What about the “Statistical difference of NAR from vehicle” value (nasal airway resistance; Example 1, phenylpropanolamine 1.0 mg/Kg i.v.) of the same molecule?
A: statistically different result from that for the vehicle

Q: What about the “Nasal congestion-preventing effect compared with thioperamide + chlorpheniramine combination” value (nasal airway resistance; Example 4 comment, phenylpropanolamine 1 mg/Kg) of the same molecule?
A: approximately equivalent nasal congestion-preventing effect

Q: With `S=C(NC1CCCCC1)N1CCC(c2cnc[nH]2)CC1` [Thioperamide, thioperamide] as the molecule, how does the “NAR (nasal airway resistance)” value (nasal airway resistance; [2]) read?
A: 6.7 centimeters of water/liters pe

Q: For `COc1ccc(C/C(=N\O)C(=O)NCCc2c[nH]cn2)cc1Br` [Verongamine, verongamine], which “Statistical difference of NAR from vehicle” value (nasal airway resistance; Example 5, verongamine 10 mg/Kg) is on record?
A: not statistically different from that for the vehicle

Q: And the “NAR (nasal airway resistance)” value (nasal airway resistance; Example 5, verongamine 10 mg/Kg, different vehicle (vehicle 7.8))?
A: 7.3 centimeters of water/liters pe

Q: What about the Ki (histamine H3 receptor) of the same molecule?
A: > 200 nM
